According to PMC11269185, “Glutamate acts on acid-sensing ion channels to worsen ischaemic brain injury” (Nature, 2024):
Values belong to the compound of their own block, whether it stands above or below them.

Tests used:
Format in all cases: binding
[1] = target: T1, ASIC1a (acid-sensing ion channel 1a) (Homo sapiens, UniProt P78348); experiment: microscale thermophoresis in cell lysate, pH […]; patch clamp (IC50 […] against glutamate potentiation); parameters: gene ASIC1; eGFP-tagged wild-type ASIC1a in HEK293T lysate
T1 sequence (P78348 1-528): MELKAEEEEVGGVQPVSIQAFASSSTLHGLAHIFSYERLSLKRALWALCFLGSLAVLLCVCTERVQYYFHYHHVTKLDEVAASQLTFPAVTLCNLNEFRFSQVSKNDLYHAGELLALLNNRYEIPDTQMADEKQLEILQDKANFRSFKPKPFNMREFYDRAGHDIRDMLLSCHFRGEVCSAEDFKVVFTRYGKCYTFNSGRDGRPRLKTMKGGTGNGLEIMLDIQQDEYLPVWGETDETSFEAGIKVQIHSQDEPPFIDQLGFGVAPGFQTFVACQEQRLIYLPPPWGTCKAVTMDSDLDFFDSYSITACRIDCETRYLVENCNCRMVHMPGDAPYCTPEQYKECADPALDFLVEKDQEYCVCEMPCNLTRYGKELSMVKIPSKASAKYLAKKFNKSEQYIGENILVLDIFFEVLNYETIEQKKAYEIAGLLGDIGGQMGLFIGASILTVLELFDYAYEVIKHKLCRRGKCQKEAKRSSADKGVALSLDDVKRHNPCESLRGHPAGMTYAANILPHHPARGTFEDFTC

[2] = target: T1, ASIC1a (acid-sensing ion channel 1a); experiment: microscale thermophoresis in cell lysate, pH […]; patch clamp; parameters: gene ASIC1; GFP-tagged ASIC1a in HEK293T lysate
[3] = target: T1, ASIC1a (acid-sensing ion channel 1a); experiment: microscale thermophoresis in cell lysate, pH […] ([…] at pH […]); patch clamp; parameters: gene ASIC1; GFP-tagged hASIC1a in lysates of transfected HEK293T cells

Kd [1]: 1100 ± 200 nM
SMILES: O=C(O)[C@@H]1C[C@H](CP(=O)(O)O)CCN1 [CGS19755]

Kd [2]: 1900 ± 400 nM
SMILES: O=C(O)C1CN(C(c2ccccc2)P(=O)(O)O)CCN1 (stereo not drawn) [LK-2]

SMILES: N[C@@H](CCC(=O)O)C(=O)O [glutamate]
Kd [3]: 113000 nM
